From paper PMC9977316, “The kidney drug transporter OAT1 regulates gut microbiome–dependent host metabolism” (JCI Insight, 2023)

Legend:
[1] = target: T1, OAT1 (Mus musculus, UniProt Q8VC69); test: Tc-99m MAG3 imaging and postmortem γ counts in Oat1-KO and WT mice; format: in vivo; details: WT vs Oat1-KO
T1 construct: from tissue; host or cells: living mice (kidney proximal tubule); Oat1-KO versus WT
T1 sequence (Q8VC69 1-545): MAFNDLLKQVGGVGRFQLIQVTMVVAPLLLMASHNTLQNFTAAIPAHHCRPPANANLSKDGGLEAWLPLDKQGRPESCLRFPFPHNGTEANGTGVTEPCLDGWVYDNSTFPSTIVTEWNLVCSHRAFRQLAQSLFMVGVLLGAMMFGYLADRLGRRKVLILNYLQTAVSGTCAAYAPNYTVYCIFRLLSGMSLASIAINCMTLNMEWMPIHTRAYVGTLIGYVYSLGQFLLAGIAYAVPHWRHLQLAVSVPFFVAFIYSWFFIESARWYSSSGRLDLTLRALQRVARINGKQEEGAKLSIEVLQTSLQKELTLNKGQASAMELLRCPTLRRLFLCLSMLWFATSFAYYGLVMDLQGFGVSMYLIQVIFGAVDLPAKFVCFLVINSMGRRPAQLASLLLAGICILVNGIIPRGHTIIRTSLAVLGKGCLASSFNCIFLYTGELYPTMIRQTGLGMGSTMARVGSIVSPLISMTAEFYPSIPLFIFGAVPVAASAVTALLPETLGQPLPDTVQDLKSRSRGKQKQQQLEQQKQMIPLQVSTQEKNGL
Procedure: Live-imaging experiments were performed with the In Vivo Imaging Shared Resource at the Moore’s Cancer Center at the UCSD. Mice were transported from the vivarium to the In Vivo Imaging Shared Resource. In total, 100 μCi of Tc-99m MAG3 was injected by tail vein into mice prior to imaging. Adult, male KO (n = 5) and WT mice (n = 5) were imaged in 5 separate pairs containing 1 KO mouse and 1 WT mouse each. Mice were initially weighed and anesthetized (2% isoflurane, 200 mL/min flow of O2). Mice were placed on their backs on the high-resolution γ imager (γ imager; BioSpace) fitted with a high-resolution, low-energy collimator. For 30 minutes, time-activity curves were collected from the kidneys, liver, and bladder. Following imaging, blood, urine, kidneys, liver, and spleen were isolated and weighed from each mouse for radioactive assessment using a γ counter.

[2] = target: T2, OAT1 (Homo sapiens, UniProt Q4U2R8); design: The full-length protein was expressed as GFP fusion in HEK293 cells to check for protein expression; GFP; FLAG (inferred from capture on anti-flag antibody beads); made in house; host or cells: HEK293 cells, third-generation lentiviral vector; details: cited from earlier work
T2 sequence (Q4U2R8 1-563): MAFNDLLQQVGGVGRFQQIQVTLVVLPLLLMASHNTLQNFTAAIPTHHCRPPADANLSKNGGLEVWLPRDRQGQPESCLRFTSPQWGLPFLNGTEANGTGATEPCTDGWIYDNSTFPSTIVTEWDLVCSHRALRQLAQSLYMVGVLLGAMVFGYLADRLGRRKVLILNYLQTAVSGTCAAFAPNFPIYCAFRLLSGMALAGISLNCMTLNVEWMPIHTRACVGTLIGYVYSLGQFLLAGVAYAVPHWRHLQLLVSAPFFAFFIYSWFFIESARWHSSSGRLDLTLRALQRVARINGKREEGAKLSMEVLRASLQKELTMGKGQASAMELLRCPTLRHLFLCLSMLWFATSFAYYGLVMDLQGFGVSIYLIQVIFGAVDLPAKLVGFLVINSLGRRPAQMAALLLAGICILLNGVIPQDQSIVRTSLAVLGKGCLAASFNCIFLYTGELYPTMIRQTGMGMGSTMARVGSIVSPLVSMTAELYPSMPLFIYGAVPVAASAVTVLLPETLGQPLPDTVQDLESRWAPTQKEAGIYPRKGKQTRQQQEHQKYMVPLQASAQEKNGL

Compound	bladder levels, postmortem γ counts scaled to weight ([1]; 4 of 5 pairs)	blood levels, postmortem γ counts scaled to weight ([1]; 4 of 5 pairs)	time to maximal bladder levels ([1]; tail-vein injection, 30 minutes, γ camera)	In vitro cell–based transport assay [2]
Tc-99m mercaptoacetyl-triglycine [Tc-99m MAG3]	higher in the WT mice	higher in the KO mice	WT bladders reached their maximal levels of Tc-99m MAG3 more quickly than the Oat1-KO mice	–
NCCc1c[nH]c2ccc(O)cc12 [Serotonin]	–	–	–	× (17)
